We go through two molecules from the NIST ThermoML archive (doi:10.1021/je900744x).

Numbers after ± are expanded uncertainties.

The conditions of this data set: Liquid, Closed cell (Static) method.

Turning to `CCC` [propane], the “vapor or sublimation pressure” value is, setting by setting: (254.31 K) 257 ± 10 kPa; (259.27 K) 303 ± 10 kPa; (269.26 K) 422 ± 10 kPa; (279.47 K) 574 ± 10 kPa; (287.94 K) 727 ± 10 kPa.

For `CC(F)F` [1,1-difluoroethane], the “vapor or sublimation pressure” value (254.31 K) turned out to be 127 ± 10 kPa; the “vapor or sublimation pressure” value (259.27 K) amounted to 156 ± 10 kPa; the “vapor or sublimation pressure” value (269.26 K) is on record as 231 ± 10 kPa; the “vapor or sublimation pressure” value (279.47 K) was found to be 331 ± 10 kPa; the “vapor or sublimation pressure” value (287.94 K) worked out at 437 ± 10 kPa.
